Experimental data taken from patent US6204293A, “Inhibitors of protein isoprenyl transferases” (University of Pittsburgh, priority 1998, dated 2001).
Where a name gives a salt, the structure may show the parent alone.

What follows are compounds tested against T1, Rat brain protein farnesyltransferase (Rattus norvegicus, UniProt Q02293+Q04631) (assay: % inhibition of farnesylation, scintillation proximity assay with biotin-K Ras B fragment). Conditions: Table 2; 1 × 10^-6 M.
T1 construct: Rat brain protein farnesyltransferase activity is measured; from tissue; host or cells: rat brain
T1 sequence (Q02293 whole entry, the tested form may be a part, one chain of several): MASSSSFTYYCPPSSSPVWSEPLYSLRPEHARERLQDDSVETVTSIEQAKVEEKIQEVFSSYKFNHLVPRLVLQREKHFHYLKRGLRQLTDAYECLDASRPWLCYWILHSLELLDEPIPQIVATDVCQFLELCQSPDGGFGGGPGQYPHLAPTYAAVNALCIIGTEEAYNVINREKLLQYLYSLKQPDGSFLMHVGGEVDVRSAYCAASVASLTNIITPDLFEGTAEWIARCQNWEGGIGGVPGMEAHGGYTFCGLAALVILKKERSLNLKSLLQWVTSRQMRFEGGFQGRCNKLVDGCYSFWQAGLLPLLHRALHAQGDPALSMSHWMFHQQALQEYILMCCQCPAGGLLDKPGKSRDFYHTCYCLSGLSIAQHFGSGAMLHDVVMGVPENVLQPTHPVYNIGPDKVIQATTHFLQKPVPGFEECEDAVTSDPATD
Assay type: biochemical
In short: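 Scintillation proximity read-out of farnesylation, using a biotinylated K Ras B fragment (0.1 mM final) in place of biotin-lamin. Enzyme purified from rat brain; results given as % inhibition.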
`CSCC[C@H](NC(=O)c1ccc(N2CC(=O)NNC2=O)cc1-c1ccccc1)C(=O)O` [Example 224] was tested, and the “% inhibition at 1 × 10^-6 M” value was 41%.
`CSCC[C@H](NC(=O)c1ccc(CN(C)C(C)(C)Cc2ccccc2)cc1-c1ccccc1C)C(=O)O` [Example 982] was tested, and the “% inhibition at 1 × 10^-6 M” value was 64%.
With `CSCC[C@H](NC(=O)c1ccc(CN(C(CC2CCCCC2)CC2CCCCC2)S(=O)(=O)c2ccccc2)cc1-c1ccccc1C)C(=O)O` [Example 911] the “% inhibition at 1 × 10^-6 M” value was 65%.
In the case of `CSCC[C@H](NC(=O)c1ccc(CNCCSc2ccccc2)cc1-c1ccccc1)C(=O)O` [Example 667], the “% inhibition at 1 × 10^-6 M” value is reported as 83%.
`Cc1ccccc1-c1cc(CCc2ccc(Oc3ccccc3)cc2)ccc1C(=O)N[C@@H](CC[S+](C)[O-])C(=O)O` (stereo partly shown) [Example 463] was tested, and the “% inhibition at 1 × 10^-6 M” value was 91%.
In the case of `CSCC[C@H](NC(=O)c1ccc(CN(C2CC2)C(C)(C)CC2CCCCC2)cc1-c1ccccc1C)C(=O)O` [Example 316], the “% inhibition at 1 × 10^-6 M” value is reported as 63%.
With `CSCC[C@H](NC(=O)c1ccc(NC[C@@H]2CSCN2)cc1-c1ccccc1)C(=O)O.Cl` [Example 166] the “% inhibition at 1 × 10^-6 M” value was 97%.
With `CSCC[C@H](NC(=O)c1ccc(NC(=O)c2cnccc2C(F)(F)F)cc1-c1ccccc1C)C(=O)O` [Example 481] the “% inhibition at 1 × 10^-6 M” value was 95%.
For `CSCC[C@H](NC(=O)c1ccc(/C=C/c2ccc(Oc3ccccc3)nn2)cc1-c1ccccc1C)C(=O)O` [Example 810], the “% inhibition at 1 × 10^-6 M” value was 89%.
In the case of `CSCC[C@H](NC(=O)c1ccc(-c2ccccc2-c2ccccc2)cc1-c1ccccc1C)C(=O)[O-].[Li+]` [Example 786], the “% inhibition at 1 × 10^-6 M” value is reported as 34%.
In the case of `CCSC[C@H](CC1CCCCC1)NCc1ccc(C(=O)N[C@@H](CCSC)C(=O)O)c(-c2ccccc2C)c1` [Example 403], the “% inhibition at 1 × 10^-6 M” value is reported as 99%.

Same assay, conditions: Table 3; 1 × 10^-7 M
With `CSCC[C@H](NC(=O)c1ccc(CN(Cc2ccc(Cl)cc2)c2ccccc2)cc1-c1ccccc1C)C(=O)O` [Example 781] the “% inhibition at 1 × 10^-7 M” value was 91%.
`CSCC[C@H](NC(=O)c1ccc(CCc2ccc(Oc3cccc(Cl)c3)cc2)cc1-c1ccccc1C)C(=O)O` [Example 859] was tested, and the “% inhibition at 1 × 10^-7 M” value was 86%.
`CSCC[C@H](NC(=O)c1ccc(CN2CCC[C@@H]2COCc2ccccc2)cc1-c1ccccc1C)C(=O)O` [Example 993] was tested, and the “% inhibition at 1 × 10^-7 M” value was 90%.
With `CCCCN(CCCC)Cc1ccc(C(=O)N[C@@H](CCSC)C(=O)O)c(-c2ccccc2C)c1` [Example 917] the “% inhibition at 1 × 10^-7 M” value was 78%.
For `CSCC[C@H](NC(=O)c1ccc(CN[C@@H](CO)CC2CCCCC2)cc1-c1ccccc1C)C(=O)O` [Example 618], the “% inhibition at 1 × 10^-7 M” value was 89%.
In the case of `CSCC[C@H](NC(=O)c1ccc(CN[C@@H](CO)C2CCCCC2)cc1-c1ccccc1C)C(=O)O` [Example 604], the “% inhibition at 1 × 10^-7 M” value is reported as 86%.

Same assay, conditions: Table 4; 1 × 10^-8 M
With `COc1ccc(N(Cc2ccccc2)Cc2ccc(C(=O)N[C@@H](CCSC)C(=O)O)c(-c3ccccc3C)c2)cc1` [Example 840] the “% inhibition at 1 × 10^-8 M” value was 73%.
In the case of `CSCC[C@H](NC(=O)c1ccc(CN(C)CCC2CCCCC2)cc1-c1ccccc1C)C(=O)[O-].[Li+]` [Example 608], the “% inhibition at 1 × 10^-8 M” value is reported as 91%.

Same assay, conditions: read-out: % inhibition at 0.01 μM (**); Table 6; ** footnote 0.01 μM (title: 0.01 mM)
With `CCCOC[C@H](CC1CCCCC1)OCc1ccc(C(=O)N[C@@H](CCSC)C(=O)O)c(-c2ccccc2C)c1` [Example 1305, N-[4-(3-Cyclohexyl-1-propoxyprop-2-yloxymethyl)-2-(2-methylphenyl)benzoyl]methionine Lithium Salt] the inhibition at 0.01 µM was 91%.
Work on `CCS(=O)(=O)C[C@H](CC1CCCCC1)OCc1ccc(C(=O)N[C@@H](CCSC)C(=O)O)c(-c2ccccc2C)c1` [Example 1311, N-[4-(3-Cyclohexyl-1-ethylsulfonylprop-2-yloxymethyl)-2-(2-methylphenyl)benzoyl]methionine Lithium Salt] yielded an inhibition at 0.01 µM of 95%.

Same assay, conditions: read-out: % inhibition at 0.1 μM (*); Table 6; * footnote 0.1 μM (title: 0.1 mM)
In the case of `CCCC[C@@H](COCc1ccc(C(=O)N[C@@H](CCSC)C(=O)O)c(-c2ccccc2C)c1)CC1CCCCC1` [Example 1315, N-[4-(2-Cyclohexylmethylhex-1-yloxymethyl)-2-(2-methylphenyl)benzoyl]methionine Lithium Salt], the inhibition at 0.1 µM is reported as 86%.

Same assay, conditions: read-out: % inhibition at 1 × 10^-6 M; Table 2; 1 × 10^-6 M
In the case of `CSCC[C@H](NC(=O)c1ccc(COCc2ccccc2)cc1-c1ccccc1C)C(=O)NS(=O)(=O)c1ccc(C)cc1` [Example 582, 4-methylbenzenesulfonyl N-2-[4-(benzyloxymethyl)-2-(2-methylphenyl)benzoyl]amino-4-methylthiobutanamide], the inhibition at 1 µM is reported as 99%.
`CSCC[C@H](NC(=O)c1ccc(SCCc2ccccc2)cc1-c1ccccc1C)C(=O)O` [Example 498, N-[4-(2-phenylethylthio)-2-(2-methylphenyl)benzoyl]methionine] was tested, and the inhibition at 1 µM was 98%.
Work on `CSCC[C@H](NC(=O)c1ccc(Sc2ccc3ccccc3c2)cc1-c1ccccc1C)C(=O)O` [Example 497, N-[4-(naphth-2-ylthio)-2-(2-methylphenyl)benzoyl]methionine] yielded an inhibition at 1 µM of 94%.
Work on `Cc1ccccc1-c1cc(COCc2ccccc2)ccc1C(=O)N[C@@H](CCS(C)(=O)=O)C(=O)O` [Example 576, N-2-[4-(benzyloxymethyl)-2-(2-methylphenyl)benzoyl]amino-4-methanesulfonylbutanoic acid lithium salt] yielded an inhibition at 1 µM of 88%.
With `CSCC[C@H](NC(=O)c1ccc(CS[C@H](CO)Cc2ccccc2)cc1-c1ccccc1)C(=O)O` [Example 545, N-[4-(3-phenylpropan-1-ol-2-ylthiomethyl)-2-phenylbenzoyl]methionine, sodium salt] the inhibition at 1 µM was 88%.
In the case of `CSCC[C@H](NC(=O)c1ccc(CSc2nc(O)cc(Cc3ccccc3)n2)cc1-c1ccccc1C)C(=O)O` [Example 744], the inhibition at 1 µM is reported as 84%.
In the case of `CCOC[C@H](CC1CCCCC1)OCc1ccc(C(=O)N[C@@H](CCSC)C(=O)O)c(-c2ccccc2C)c1` [Example 525, N-[4-(3-Cyclohexyl-1-ethoxypropan-2-yl)oxymethyl-2-(2-methylphenyl)benzoyl]methionine lithium salt], the inhibition at 1 µM is reported as 99%.

Same assay, conditions: read-out: % inhibition at 1 × 10^-7 M
With `CSCC[C@H](NC(=O)c1ccc(COCCc2ccc(-c3ccc(F)cc3)o2)cc1-c1ccccc1C)C(=O)O` [Example 535, N-[4-(5-(4-fluorophenyl)furan-2-ylethoxymethyl)-2-(2-methylphenyl)benzoyl]methionine lithium salt] the inhibition at 0.1 µM was 89%.
Work on `CSCC[C@H](NC(=O)c1ccc(COCc2ccc(-c3ccc(C(C)=O)cc3)o2)cc1-c1ccccc1C)C(=O)O` [Example 449, N-[4-(5-(4-acetylphenyl)furan-2-ylmethoxymethyl)-2-(2-methylphenyl)benzoyl]methionine lithium salt] yielded an inhibition at 0.1 µM of 91%.

Same assay, conditions: read-out: % inhibition at 1 × 10^-7 M; Table 3; 1 × 10^-7 M
`CSCC[C@H](NC(=O)c1ccc(COCc2cccc(N(C)C)c2)cc1-c1ccccc1C)C(=O)O` [Example 941, N-[4-(3-N,N-dimethylaminobenzyloxymethyl)-2-(2-methylphenyl)benzoyl]methionine lithium salt] was tested, and the inhibition at 0.1 µM was 90%.

Same assay, conditions: read-out: % inhibition at 1 × 10^-8 M
`CSCC[C@H](NC(=O)c1ccc(COCc2ccc(-c3ccc(C(C)C)cc3)o2)cc1-c1ccccc1C)C(=O)O` [Example 820, N-[4-(5-(4-isopropylphenyl)furan-2-ylmethoxymethyl)-2-(2-methylphenyl)benzoyl]methionine lithium salt] was tested, and the inhibition at 0.01 µM was 66%.

Same assay, conditions: read-out: % inhibition at 1 × 10^-8 M; Table 4; 1 × 10^-8 M
With `CSCC[C@H](NC(=O)c1ccc(CSCc2ccccc2)cc1-c1ccccc1C)C(=O)NS(=O)(=O)c1ccc(C)cc1` [Example 586, 4-methylbenzenesulfonyl N-2-[4-(benzylthiomethyl)-2-(2-methylphenyl)benzoyl]amino-4-methylthiobutanamide] the inhibition at 0.01 µM was 90%.
